Literature values in US20110105624A1, “ENDIPALENE FORMULATIONS IN THE TREATMENT OF PSORIASIS” (priority 2008, published 2011).

System: volunteers with psoriasis

In the case of COc1c(OC)c(OC(C)=O)c2cc(Cl)ccc2c1OC(C)=O [Lonapalene, 6-chloro-2,3-dimethoxynaphtalendiacetate], the “clinical improvement in lesions” value (2% ointment, topical, compared with vehicle-treated sites) is given as “statistically significant clinical improvement” and the “side effects related to topical application” value (topical application) is given as “serious side effects”.
